Test results published in patent publication US20070219208A1, “Methods for Treating Cancer” (priority 2006, published 2007).

Experiments:
[1] = tested on: MCF-7 cells; assay: Soft agar assay for colony formation (anchorage-independent growth); format: cell-based; conditions: 1400 W 10 μM or mevalonate 20 μM with statin 10 μM
Method: Soft Agar Assay for Colony Formation:
After cells were treated with various conditions, they were seeded in six-well plates. The plates were first covered with phenol red-free MEM containing 0.6% agar and 10% FBS. The middle layer contained cells (5×10^3) in phenol red-free MEM with 0.35% agar and 10% FBS. The top layer, consisting of the medium, was added to prevent drying of the agar in the plates. The plates were incubated for 21 days, after which the plates were stained in 0.5 ml of 0.005% crystal violet for 1 h and the cultures were inspected and photographed. The colony efficiency (CE) was determined by a count of the number of colonies greater than […] in diameter, which was calculated as the average of colonies counted at 50× magnification in five individual fields manually (Liu S, et al. Oncogene, 23:1256-62, 2004).
The long-term effects of statins and the inhibitors on the proliferation and survival of MCF-7 cells were determined using clonogenic assays (Ramanathan B, et al. Cancer Res, 65:8455-60, 2005). The extent of malignancy of cells corresponds to the attainment of anchorage-independent growth (Liu S, et al. Oncogene, 23:1256-62, 2004). MCF-7 cells were treated with simvastatin or fluvastatin in the presence or absence of either 1400 W or mevalonate or sepiapterin. In separate experiments, cells were treated with either GGTI-298 or FTI-277. At the end of the treatments, approximately 5×10^3 cells were seeded onto a soft agar to determine their clonogenic efficiency after 21 days. […] In the presence of either 1400 W or mevalonate, the colony formation was restored in statin-treated cells (FIG. 6B).

[2] = tested on: MCF-7 breast cancer cells; assay: MTT reduction cytotoxicity assay in MCF-7 cells; conditions: pretreatment before simvastatin or fluvastatin (10 μM), 48 h; mevalonate 20 μM, 1400 W 10 μM
Method: MTT Reduction Cytotoxicity Assay:
MTT is taken up by cells and is reduced to a colored formazon product that can be detected by spectrophotometry (max=562 nm). Reduction of MTT is dependent upon the mitochondrial respiratory function, and thus measures the relative number of viable cells in the culture. After the treatment was completed, MCF-7 cells were washed twice with DPBS and taken in a ml of MEM without FBS and incubated with 5 mg/ml MTT solution for 1 h at 37° C. Medium was removed and cells were solubilized in DMSO. The absorption was measured at 562 nm with reference at 630 nm.
We assessed the effectiveness of simvastatin and fluvastatin to induce cytotoxicity in MCF-7 cells. MCF-7 breast cancer cells were treated with fluvastatin or simvastatin at different concentrations (0.5-20 μM) for 24-48 h. The changes in the number of viable cells were determined using the MTT assay that monitors the intracellular conversion of MTT to formazon spectrophotometrically max=562 nm).

[3] = tested on: MCF-7 cells; assay: Cell cycle analysis by flow cytometry; format: cell-based; conditions: 1400 W 10 μM, mevalonate 20 μM
Method: For DNA content analysis, harvested cells were centrifuged at 1,000×g for 5 min, fixed by the gradual addition of ice-cold 70% ethanol, and washed with PBS. Cells were then treated with RNase (10 μg/mL) for 30 min at 37° C., washed once with PBS, and resuspended and stained in 1 mL of 69 μmol/L propidium iodide in 38 mmol/L sodium citrate for 30 min at room temperature. The cell cycle phase distribution was determined by analytic DNA flow cytometry as described in (Vindelov L, et al. Methods Cell Biol, 33:127-37, 1990). The percentage of cells in each phase of the cell cycle was analyzed using a Modfit software (Verity Software House, Topsham, Me.).
As NO has previously been reported to exert tumor cell cycle alterations (Pervin S, et al. Natl Acad Sci USA 98:3583-3588, 2001), we investigated the cytostatic effect of statins in MCF-7 cells. MCF-7 cells were treated with simvastatin and fluvastatin for […] in the presence and absence of 1400 W (10 μM) and mevalonate (20 μM). Cell cycle progression was examined using FACScan flow cytometry analysis. […] As cell cycle progression from […] involves activations of the cell regulatory proteins, cyclins D and E, we investigated the effects of statins and iNOS inhibitor on the cell cycle proteins. […]

[4] = tested on: iNOS in MCF-7 cells; assay: iNOS mRNA (RT-PCR) and protein (Western) levels; format: cell-based; conditions: mevalonate 20 μM
Method: After treatment with statins, cells were washed with ice-cold DPBS and resuspended in 150 μl of radioimmune precipitation assay buffer (20 mM Tris-HCl, pH 7.4, 2.5 mM EDTA, 1% Triton X-100, 1% sodium deoxycholate, 1% SDS, 100 mM NaCl, 100 mM sodium fluoride) containing 1 mM sodium vanadate, 10 μg/ml aprotinin, 10 μg/ml leupeptin, and 10 μg/ml pepstatin inhibitors. Cells were homogenized by passing the suspension through a 25-gauge needle (20 strokes). The lysate was centrifuged at 750×g for 10 min at 4° C. to pellet out the nuclei. The remaining supernatant was centrifuged for 30 min at 12,000×g. Protein was determined using the Lowry method and 50 μg of the lysate was used for the Western blot analysis. Proteins were resolved using the SDS-polyacrylamide gels and blotted onto nitrocellulose membranes. Membranes were washed with TBS (140 mM NaCl, 50 mM Tris-HCl, pH 7.2) containing 0.1% Tween 20 (TBST) and 5% skim milk to block the non-specific protein binding. Membranes were incubated with 1 μg/ml rabbit anti-iNOS polyclonal antibody (Abeam, Cambridge, Mass.), mouse anti-cyclin D1 antibody, mouse anti-cyclin E antibody (BD Biosciences, San Jose, Calif.) or rabbit anti-p27 antibody (Chemicon International, Temecula, Calif.) in TBST for overnight at 4° C., washed 5 times with TBST, and then incubated with goat anti-rabbit or rabbit anti-mouse IgG-horseradish peroxidase-conjugated secondary antibody (1:5,000) for 1.5 h at room temperature. The band was detected using the ECL method (Amersham Biosciences).
Following the treatments, medium was aspirated and 1 ml of TRIzol reagent (Invitrogen) was added and total RNA was extracted using the manufacturer's protocol. Five μg of RNA was used for the first strand cDNA synthesis using a first strand cDNA synthesis kit (Amersham Biosciences). […]

CC(O)(CCO)CC(=O)O (stereo not shown) [mevalonate]
colony formation in statin-treated cells in the presence of modulator [1]: restored
effect on statin-induced MCF-7 cell cytotoxicity (MTT assay) [2]: significantly reversed
effect on statin-induced cell cycle alterations [3]: almost completely reversed
effect on statin-induced iNOS [4]: inhibited
